Tests used:
Assay in all cases: HLA class II peptide-binding assay (competitive ELISA)
DRB1*0101 = DRB1*0101 (Homo sapiens, UniProt P01903+P01911, A100R/D57E/F55L/F60I/F76Y/I96L/L162R/M171V/P40L/Q125E/R42F/V115G/Y59C); conditions: immunopurified HLA, reference peptide IC50 3 nM, ratio ≤20 high affinity, 20–200 moderate affinity
DRB1*0301 = DRB1*0301 (Homo sapiens, UniProt P01903+P01911, A100K/A102G/A103R/A169T/F55Y/I96L/K41T/L162R/M171V/P40S/Q125H/Q178H/Q39Y/R42S/S66N/T106N/T262R/W38E/Y61H); conditions: immunopurified HLA, reference peptide IC50 423 nM, ratio ≤20 high affinity, 20–200 moderate affinity
DRB1*0401 = DRB1*0401 (Homo sapiens, UniProt P01903+P01911, A100K/A169T/F76Y/I96L/K127E/L162R/M171V/N62H/P40V/Q125Y/R42H/S133A/S149N/S66Y/V115G/V209L/W38E); conditions: immunopurified HLA, reference peptide IC50 8 nM, ratio ≤20 high affinity, 20–200 moderate affinity
DRB1*0701 = DRB1*0701 (Homo sapiens, UniProt P01903+P01911, A100R/A102G/A103Q/D57E/D86V/E43K/F76Y/K127E/L162R/M171V/P40G/Q125H/Q99D/R33Q/R42Y/R54Q/S133A/S66F/T210M/V115G/Y107V/Y59L/Y89S); conditions: immunopurified HLA, reference peptide IC50 5 nM, ratio ≤20 high affinity, 20–200 moderate affinity
DRB1*1101 = DRB1*1101 (Homo sapiens, UniProt P01903+P01911, A100R/A169T/A87E/I96F/K41T/L162R/M171V/P40S/Q125H/Q178H/Q39Y/Q99D/R42S/S66Y/T262R/V115G/W38E); conditions: immunopurified HLA, reference peptide IC50 50 nM, ratio ≤20 high affinity, 20–200 moderate affinity
DRB1*1301 = DRB1*1301 (Homo sapiens, UniProt P01903+P01911, A100E/A169T/K41T/L162R/M171V/P40S/Q125H/Q178H/Q39Y/Q99D/R42S/S66N/T262R/W38E/Y61H); conditions: immunopurified HLA, reference peptide IC50 208 nM, ratio ≤20 high affinity, 20–200 moderate affinity
DRB1*1501 = DRB1*1501 (Homo sapiens, UniProt P01903+P01911); conditions: immunopurified HLA, reference peptide IC50 775 nM, ratio ≤20 high affinity, 20–200 moderate affinity
DRB3 = test system: DRB3; design: species or system human; conditions: DRB3; competitive ELISA, immunopurified HLA; reference peptide IC50 60 nM; ratio ≤20 high affinity, 20–200 moderate affinity
DRB4 = test system: DRB4; design: species or system human; conditions: DRB4; competitive ELISA, immunopurified HLA; reference peptide IC50 8 nM; ratio ≤20 high affinity, 20–200 moderate affinity
DRB5 = test system: DRB5; design: species or system human; conditions: DRB5; competitive ELISA, immunopurified HLA; reference peptide IC50 7 nM; ratio ≤20 high affinity, 20–200 moderate affinity

Row | Sequence | relative binding ratio (IC50 of the test peptide divided by IC50 of the reference peptide) (DRB1*0101) | relative binding ratio (IC50 of the test peptide divided by IC50 of the reference peptide) (DRB1*0301) | relative binding ratio (IC50 of the test peptide divided by IC50 of the reference peptide) (DRB1*0401) | relative binding ratio (IC50 of the test peptide divided by IC50 of the reference peptide) (DRB1*0701) | relative binding ratio (IC50 of the test peptide divided by IC50 of the reference peptide) (DRB1*1101) | relative binding ratio (IC50 of the test peptide divided by IC50 of the reference peptide) (DRB1*1301) | relative binding ratio (IC50 of the test peptide divided by IC50 of the reference peptide) (DRB1*1501) | relative binding ratio (IC50 of the test peptide divided by IC50 of the reference peptide) (DRB3) | relative binding ratio (IC50 of the test peptide divided by IC50 of the reference peptide) (DRB4) | relative binding ratio (IC50 of the test peptide divided by IC50 of the reference peptide) (DRB5)
1 | PGKYTADGGKHVAYII [pTL4, Tear lipocalin peptide p74–89] | 17 | > 236 | 31 | 65 | 0.2 | > 481 | > 13 | 2 | > 1 179 | 433
2 | RQIRMAKLLGRDPEQSQ [pC7, Can f 1 peptide p107–123] | 66 | 4 | 661 | > 1 874 | 92 | 2 | > 13 | > 167 | 94 | 1
3 | ALEDFEKAAGARGLST [pTL8, Tear lipocalin peptide p126–141] | 3 | > 236 | 85 | 1 440 | > 200 | > 481 | > 13 | > 167 | > 1 179 | 22
4 | GTWYLKAMTVDREFPE [pTL1, Tear lipocalin peptide p15–30] | 82 | 10 | 1 | 47 | 67 | 24 | 6 | 84 | 1 | 2
5 | MNLESVTPMTLTTLEGGNL [pTL2, Tear lipocalin peptide p31–49] | 15 | > 236 | 436 | 55 | > 200 | > 481 | > 13 | > 167 | > 1 179 | 645
